# Data published in patent US9958439B2, “Carbohydrate detection” (RICHTER LIFE SCIENCE DEVELOPMENT AB, priority 2012, dated 2018).
# Like-named read-outs stand apart in the source and are kept apart here.
# Key:
# [1] = tested on: biofilm (curli, cellulose) of S. enteritidis 3934 wt and isogenic mutants; experiment: Real time tracking of biofilm formation with h-FTAA; type: cell-based, Salmonella enteritidis; conditions: 2 μg/ml in culture, curli Ex 405/Em 556 nm, cellulose Ex 500/Em 600 nm, hourly over 48 h
# Protocol: A) comparison of OD600 (. . . ) against GFP signal (_) of a wt biofilm culture over 48 hours; B) correlation of OD600 against GFP signal; […].
# The turbidity of a bacterial culture, measured by absorbance at OD600, is used to define culture density. Expression of GFP provides a direct representation of bacterial growth and culture density. S. enteritidis 3934 wt and isogenic mutants ΔbscA, ΔcsgA, and ΔcsgD were transformed with the plasmid P2777 which carries the gfp gene for a more direct representation of culture density through fluorescence detection. […] […]. RFU data of GFP and h-FTAA from the four plates were combined in a single plot to visualize the hourly change in signals over time.
# [2] = tested on: biofilm of S. enteritidis wt strain 3934 and isogenic mutants ΔbscA, ΔcsgA, ΔcsgD; experiment: LCO assay for fluorescence confocal analysis of biofilm and biofilm morphology; type: cell-based, Salmonella enteritidis; conditions: for fluorescent signal from the LCO on biofilm versus phase contrast microscopy: 2 μg/ml LCO, fixed and washed cover-slip biofilm
# Description: Fluorescence confocal analysis (left side) and phase contrast analysis (right side) of the same slide are shown side by side.
# Glass cover-slips were introduced to the wells of a 6-well plate (according to the set-up shown in FIG. 2A) to provide surfaces for biofilm formation, which at the end of experiment could be easily removed for microscope analysis. To prepare for the biofilm experiment, individual cultures of S. enteritidis wt strain 3934 and isogenic mutants ΔbscA, ΔcsgA, and ΔcsgD were grown in LB medium in flasks overnight. Each culture was diluted 100-fold in fresh LB and cultivated in a shaking incubator (230 rpm) at 37° C. to OD600=0.6. Cultures were diluted to a culture density of 10^5 CFU/ml in LB without salt and dispensed into the cover-slip containing 6 well plates in 8 ml aliquots. After incubating the plates for 48 h at 28° C., glass cover-slips were removed and washed twice with PBS before fixation in 4 ml of 4% formaldehyde for 1 h. […] PBS functioned as the negative control, used to assess the level of auto-fluorescence. Treated slides were then washed twice with PBS and mounted with Vectashield® for fluorescence-based confocal laser scanning microscopy analysis. Specifically, the edge of the biofilm formed at the liquid air interface was visualized using the appropriate fluorescence filters. […] The right side is an overlay of an optical inspection of bacterial presence by phase contrast with LCO fluorescence. Phase contrast is a traditional method for visual confirmation of biofilm attachment on surfaces.
# [3] = for RFU change (Correlation analysis): probe-specific excitation λ, emission 545 nm; for carbohydrate can be detected and/or differentiated by the LCO: conclusion from change in signal magnitude and/or shift in λmax; for Gradient Parameters (gradient of regression line) / Linear relationship / Quality of Gradient: linear regression
# In short: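 LCO probes at 3 μM mixed with serial twofold carbohydrate dilutions in dH2O (10–0.039 or 5–0.019 mg/ml, depending on carbohydrate). Excitation scanned 300–500 nm, emission read at 545 nm; detection defined as reproducible shift in λmax and/or RFU relative to negative control, with linear regression of RFU against concentration.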
# [4] = In short: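 LCO probes (3 μM) were added to serial two-fold dilutions of carbohydrate suspensions in dH2O, with excitation scanned 300–500 nm and emission at 545 nm. Detection was a reproducible λmax and/or RFU change versus no-carbohydrate control. RFU was regressed linearly against concentration at the λmax or the lowest-background excitation.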
# [5] = remark: listed apart in the source
# In short: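 LCO probes at 3 μM mixed with serial two-fold carbohydrate dilutions in water (10–0.039 or 5–0.019 mg/ml), run in triplicate. Excitation scanned 300–500 nm with emission at 545 nm; detection based on reproducible λmax or RFU shift against the no-carbohydrate control, with linear regression of RFU on concentration.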
# [6] = for RFU change (Correlation analysis): probe-specific excitation λ, emission 545 nm
# In short: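 LCO probes at 3 μM mixed with serial two-fold dilutions of carbohydrate in dH2O (10–0.039 or 5–0.019 mg/ml, depending on carbohydrate), in triplicate. Excitation scanned 300–500 nm or fixed per probe (λmax or lowest background), emission at 545 nm. Detection taken as reproducible λmax/RFU shift vs no-carbohydrate control; RFU regressed linearly on concentration.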
# [7] = remark: listed apart in the source
# In short: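 3 μM of each LCO probe was added to serial two-fold carbohydrate dilutions in water (10–0.039 or 5–0.019 mg/ml). Excitation spectra were scanned 300–500 nm with emission at 545 nm, in triplicate. Detection was defined as a reproducible shift in λmax and/or RFU versus negative control, with linear regression of RFU against concentration.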
# [8] = for RFU change (Correlation analysis) / RFU change (Signal deviation with increasing [Carbohydrate]) / λmax change: 3 μM probe; for RFU change (Correlation analysis): probe-specific excitation λ, emission 545 nm; for RFU change (Signal deviation with increasing [Carbohydrate]) / λmax change: spectral analysis, Excitation 300-500, Emission 545; for carbohydrate can be detected and/or differentiated by the LCO: conclusion from change in signal magnitude and/or shift in λmax; for Gradient Parameters (gradient of regression line) / Linear relationship / Quality of Gradient: linear regression
# In short: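 Each LCO probe at 3 μM was added to two-fold serial dilutions of carbohydrate in dH2O (10–0.039 mg/ml for β-1,3-glucan, cellulose, chitin; 5–0.019 mg/ml for the others), run in triplicate. Excitation spectra were scanned 300–500 nm with emission at 545 nm. Detection was a reproducible λmax and/or RFU shift versus negative control, with linear regression of RFU against concentration.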
# [9] = tested on: biofilm (curli, cellulose) of S. enteritidis wt strain 3934 and isogenic mutants; conditions: 2 μg/ml LCO, unprocessed cultures, excitation 300-500 nm, emission 545 nm
# Protocol: A fresh overnight culture of the clinically derived S. enteritidis wt strain 3934 and isogenic mutants (ΔbscA; ΔcsgA and ΔcsgD) was inoculated into fresh LB and cultivated at 37° C. to OD600=0.6. […] 50 μl of each culture was next inoculated in triplicates into separate wells of 96-well plates and incubated at 28° C. for 48 hours.
# After removing the biofilm cultures from the incubator, no processing steps were implemented before the detection of LCO signals. […] Emission spectra for curli bound LCOs was collected by reading the emission signal between 500-700 nm when the sample was excited at 405 nm. Emission spectra for cellulose bound LCOs was collected by reading the emission signal between 520-700 nm when the sample was excited at 500 nm.
# [10] = Glycogen 5-0.019 mg/ml, 3 μM probe, spectral analysis, Excitation 300-500, Emission 545
# [11] = Sodium alginate 5-0.019 mg/ml, 3 μM probe, spectral analysis, Excitation 300-500, Emission 545
# [12] = sodium alginate concentration vs RFU, linear regression
# [13] = glucose concentration vs RFU, linear regression
# [14] = Cellulobiose 5-0.019 mg/ml, 3 μM probe, spectral analysis, Excitation 300-500, Emission 545
# [15] = amylose concentration vs RFU, linear regression
# [16] = cellulobiose concentration vs RFU, linear regression
# [17] = Chondroitin Sulfate A 5-0.019 mg/ml, 3 μM probe, spectral analysis, Excitation 300-500, Emission 545
# [18] = Chondroitin Sulfate A concentration vs RFU, linear regression
# [19] = β-1,3-glucan concentration vs RFU
compound,measurement,setting,value
"O=C(O)Cc1cc(-c2ccc(-c3ccc(C(=O)O)s3)s2)sc1-c1ccc(-c2sc(-c3ccc(-c4ccc(C(=O)O)s4)s3)cc2CC(=O)O)s1 [h-FTAA, hepta Formic Thiophene Acetic Acid]",real time analysis of biofilm formation,[1],enables real time analysis of biofilm formation
same,fluorescent signal from the LCO on biofilm versus phase contrast microscopy,[2],coincides with visible bacteria aggregates
same,fluorescent signal with cellulose+ curli− ΔcsgA biofilm,"[2]; 2 μg/ml, ΔcsgA, confocal microscopy",gave a fluorescent signal
"Cl.Cl.c1csc(-c2cc(CCn3ccnc3)c(-c3ccc(-c4sc(-c5cccs5)cc4CCn4ccnc4)s3)s2)c1 [pHTIm, penta Hydrogen Thiophene Imidazole]",RFU change (Correlation analysis),"[3]; Glycogen 5-0.019 mg/ml, 3 μM probe",Increases
same,RFU change (Signal deviation with increasing [Carbohydrate]),[3]; [10],Increases
same,λmax change,[3]; [10],Redshift
same,carbohydrate can be detected and/or differentiated by the LCO,[3]; Glycogen,can be detected and/or differentiated
same,RFU change (Correlation analysis),"[3]; Heparin 5-0.019 mg/ml, 3 μM probe",Increases
same,RFU change (Signal deviation with increasing [Carbohydrate]),"[3]; Heparin 5-0.019 mg/ml, 3 μM probe, spectral analysis, Excitation 300-500, Emission 545",Unclear
same,carbohydrate can be detected and/or differentiated by the LCO,[3]; Heparin,can be detected and/or differentiated
same,Gradient Parameters (gradient of regression line),[3]; glycogen concentration vs RFU,835.8 ± 26.6
same,Linear relationship,[3]; glycogen concentration vs RFU,Significant
same,Quality of Gradient,[3]; glycogen concentration vs RFU,Positive
same,Gradient Parameters (gradient of regression line),[3]; heparin concentration vs RFU,96.3 ± 36.8
same,Linear relationship,[3]; heparin concentration vs RFU,Significant
same,Quality of Gradient,[3]; heparin concentration vs RFU,Positive
same,Sensitivity,[3]; to glycogen,Yes
same,Sensitivity,[3]; to heparin,Yes
same,RFU change (Correlation analysis),"[4]; Sodium alginate 5-0.019 mg/ml, 3 μM probe, probe-specific excitation λ, emission 545 nm",Increases
same,RFU change (Signal deviation with increasing [Carbohydrate]),[4]; [11],Increases
same,λmax change,[4]; [11],Redshift
same,carbohydrate can be detected and/or differentiated by the LCO,"[4]; Sodium alginate, conclusion from change in signal magnitude and/or shift in λmax",can be detected and/or differentiated
same,Gradient Parameters (gradient of regression line),[4]; [12],266 ± 29.2
same,Linear relationship,[4]; [12],Significant
same,Quality of Gradient,[4]; [12],Positive
same,Sensitivity,[4]; to sodium alginate,Yes
same,RFU change (Correlation analysis),"[5]; Glucose 5-0.019 mg/ml, 3 μM probe, probe-specific excitation λ, emission 545 nm",Unclear
same,RFU change (Signal deviation with increasing [Carbohydrate]),"[5]; Glucose 5-0.019 mg/ml, 3 μM probe, spectral analysis, Excitation 300-500, Emission 545",Unclear
same,Gradient Parameters (gradient of regression line),[5]; [13],10.9 ± 25.5
same,Quality of Gradient,[5]; [13],Horizontal
same,Sensitivity,[5]; to glucose,No
same,RFU change (Correlation analysis),"[6]; Amylose 5-0.019 mg/ml, 3 μM probe",Decreases
same,RFU change (Signal deviation with increasing [Carbohydrate]),"[6]; Amylose 5-0.019 mg/ml, 3 μM probe, spectral analysis, Excitation 300-500, Emission 545",Decreases
same,carbohydrate can be detected and/or differentiated by the LCO,"[6]; Amylose, conclusion from change in signal magnitude and/or shift in λmax",can be detected and/or differentiated
same,RFU change (Correlation analysis),"[6]; Cellulobiose 5-0.019 mg/ml, 3 μM probe",Unclear
same,RFU change (Signal deviation with increasing [Carbohydrate]),[6]; [14],Increases
same,λmax change,[6]; [14],No change
same,Gradient Parameters (gradient of regression line),[6]; [15],−655 ± 110
same,Linear relationship,[6]; [15],Significant
same,Quality of Gradient,[6]; [15],Negative
same,Gradient Parameters (gradient of regression line),[6]; [16],75.1 ± 61.5
same,Quality of Gradient,[6]; [16],Horizontal
same,Sensitivity,[6]; to amylose,Yes
same,Sensitivity,[6]; to cellulobiose,No
same,RFU change (Correlation analysis),"[7]; Chondroitin Sulfate A 5-0.019 mg/ml, 3 μM probe, probe-specific excitation λ, emission 545 nm",Increases
same,RFU change (Signal deviation with increasing [Carbohydrate]),[7]; [17],Increases
same,λmax change,[7]; [17],Redshift
same,Gradient Parameters (gradient of regression line),[7]; [18],1177 ± 203.6
same,Linear relationship,[7]; [18],Significant
same,Quality of Gradient,[7]; [18],Positive
same,carbohydrate can be detected and/or differentiated by the LCO,"[7]; Chondroitin sulfate A, conclusion from change in signal magnitude and/or shift in λmax",can be detected and/or differentiated
same,Sensitivity,[7]; to Chondroitin Sulfate A,Yes
same,RFU change (Correlation analysis),[8]; Cellulose 10-[…],Increase
same,RFU change (Signal deviation with increasing [Carbohydrate]),[8]; Cellulose 10-[…],Increase
same,λmax change,[8]; Cellulose 10-[…],Redshift
same,carbohydrate can be detected and/or differentiated by the LCO,[8]; Cellulose,can be detected and/or differentiated
same,RFU change (Correlation analysis),[8]; Chitin 10-[…],Decreases
same,RFU change (Signal deviation with increasing [Carbohydrate]),[8]; Chitin 10-[…],Decrease
same,λmax change,[8]; Chitin 10-[…],Redshift
same,carbohydrate can be detected and/or differentiated by the LCO,[8]; Chitin,can be detected and/or differentiated
same,Gradient Parameters (gradient of regression line),[8]; cellulose concentration vs RFU,3063 ± 564.3
same,Linear relationship,[8]; cellulose concentration vs RFU,Significant
same,Quality of Gradient,[8]; cellulose concentration vs RFU,Positive
same,Gradient Parameters (gradient of regression line),[8]; chitin concentration vs RFU,−383.6 ± 71.4
same,Linear relationship,[8]; chitin concentration vs RFU,Significant
same,Quality of Gradient,[8]; chitin concentration vs RFU,Negative
same,Sensitivity,[8]; to cellulose,Yes
same,Sensitivity,[8]; to chitin,Yes
same,Sensitivity,"[8]; to β-1,3-glucan",No
same,RFU change (Correlation analysis),"[8]; β-1,3-glucan 10-[…]",Decrease
same,RFU change (Signal deviation with increasing [Carbohydrate]),"[8]; β-1,3-glucan 10-[…]",Decrease
same,λmax change,"[8]; β-1,3-glucan 10-[…]",Redshift
same,Gradient Parameters (gradient of regression line),[8]; [19],−177.1 ± 89.6
same,Quality of Gradient,[8]; [19],Horizontal
hepta Hydrogen Thiophene Acetic Acid [h-HTAA],fluorescent signal from the LCO on biofilm versus phase contrast microscopy,[2],coincides with visible bacteria aggregates
same,differentiation of biofilm morphologies of isogenic mutants by excitation spectra,[9],did not differentiate biofilm morphologies
